“Also recorded” adds a separate entry of the source.
How the values were obtained:
[1] = test system: mice transplanted with T-ALL (ENU-induced murine leukemia); experiment: In vivo efficacy in mice transplanted with T-ALL
Experimental: Leukemic mice were generated by the usage of the tumorigenic agent N-ethyl-N-nitrosourea (ENU). […] Leukemic blasts coming from the spleen of leukemic animals were transplanted into C57BL/6Ly5.1-recipient mice. Three days after transplantation, a time sufficient for leukemic blasts to home the bone marrow of the host, we started to treat the animals.
Experiments involving mice were performed in agreement with Italian guidelines and after the approval of the Institutional Review Board of the European Institute of Oncology. Leukemic mice were generated by a single administration of the tumorigenic agent N-ethyl-N-nitrosourea (Sigma, 50 mg/kg intraperitoneally). Spleen cells from leukemic C57BL6/Ly5.2 mice were injected intravenously (2 × 10^6 cells/mouse) into non-irradiated, recipient C57BL6/Ly5.1 mice. PF-0077736 was administered intraperitoneally starting from day 3 after the transplant of leukemic cells. Mice received doses of PF-0077736 (40 mg/kg each dose) every 3 days for four treatments (q3dx4). Kaplan-Meyer rank test was used to compare the survival rate between treated and control mice.

[2] = test system: NALM-6 cells; details: NALM-6 γ-H2A.X positive cells
Experimental: The so-called hyper-γ-H2A.X-positive cells loose the typical foci signal of γ-H2A.X and emit a much higher and diffuse signal of γ-H2A.X positivity.
NALM-6 and BV-173 cells were seeded to poly-D lysine-coated slides, fixed with 4 % PFA (paraformaldehyde), and stained at 37 °C with a mouse anti-H2A.X-Phosphorylated Alexa 647 conjugated antibody (BioLegend). Then, they were treated with DAPI (4.6 diamidino-2-phenylindole; Sigma Aldrich), and the slides were mounted with Mowiol (Calbiochem). Images were acquired with wide field fluorescence microscope Olympus BX61 fully motorized driven by Metamorph software, and the analysis was performed using the freeware ImageJ software.

## Cn1cc(-c2[nH]c3cc(NC(=O)[C@H](N)C4CCCCC4)cc4c3c2C=NNC4=O)cn1 [PF-00477736]
[1]; 40 mg/kg intraperitoneally q3dx4, five treated vs seven control mice, p value =0.0009, listed as PF-0477736
  overall survival vs vehicle: significantly increases the overall survival; also recorded: increases the survival of treated mice
[1]; 40 mg/kg intraperitoneally q3dx4 from day 3 after transplant, five mice, controls (PBS) die all at day 17
  survival of treated animals post transplantation: up to 59 days
[1]; 40 mg/kg, q3dx4 schedule, intraperitoneally
  toxicity for the animals: seems not to be toxic
[2]
  fold change of mean value intensity of γ-H2A.X, treated vs untreated: 1.4 fold

— publication PMC4635624, “In vitro and in vivo single-agent efficacy of checkpoint kinase inhibition in acute lymphoblastic leukemia” (Journal of Hematology & Oncology, 2015)
